Test results reported in ChEMBL document CHEMBL1154328, “New inhibitors of the complement system inspired in K76-COOH. A SAR study of filifolinol derivatives through modifications of the C3' position” (Bioorg Med Chem Lett, 2009).

Assay: Inhibition of serum complement system-mediated hemolysis of human RBCs
Conditions: not given; call rule not given here

With `C[C@H]1CCCC(C)(C)[C@@]12Cc1cc(C(=O)O)ccc1O2` the IC50 was “Not Active”.

Same assay, conditions: read-out: IC50

Going from `CCCN[C@H]1CC[C@H](C)[C@]2(Cc3cc(C(=O)O)ccc3O2)C1(C)C` to `CCCN[C@@H]1CC[C@H](C)[C@]2(Cc3cc(C(=O)O)ccc3O2)C1(C)C`, the IC50 falls from 2750 µM to 211 µM (13-fold). The second is the more potent here.

Going from `CC1=CC[C@H]([C@]2(C)Cc3c(O)ccc(C(=O)O)c3O2)CC1` to `COc1ccc(C(=O)O)c2c1C[C@@](C)([C@H]1CC=C(C)CC1)O2`, the IC50 falls from 2150 µM to 680 µM (3.2-fold). The second is the more potent here.

`C[C@H]1CC[C@@](O)(CC(O)CO)C(C)(C)[C@@]12Cc1cc(C(=O)O)ccc1O2` (stereo partly specified) [listing 1 of 2 here] and `C[C@H]1CC[C@@H](OCC(O)CO)C(C)(C)[C@@]12Cc1cc(C(=O)O)ccc1O2` (stereo partly specified) are within 1.5-fold of each other in IC50: 3290 µM for the first, 4720 µM for the second.

Compared with `C[C@H]1CC[C@H](O)C(C)(C)[C@@]12Cc1cc(C(=O)O)ccc1O2`, `C[C@H]1CC[C@@H](O)C(C)(C)[C@@]12Cc1cc(C(=O)O)ccc1O2` is 23-fold lower in IC50: 12100 µM for the first, 517 µM for the second. The second is the more potent here.

Compared with `C[C@H]1CC[C@@](O)(CC(O)CO)C(C)(C)[C@@]12Cc1cc(C(=O)O)ccc1O2` (stereo partly specified) [listing 2 of 2 here], `C[C@H]1CC[C@@H](OCCO)C(C)(C)[C@@]12Cc1cc(C(=O)O)ccc1O2` is 9.2-fold higher in IC50: 480 µM for the first, 4400 µM for the second.

First: COC(=O)c1ccc2c(c1)C[C@@]1(O2)[C@@H](C)CC[C@@H](O)C1(C)C [FILIFOLINOL]
Second: CCCO[C@@H]1CC[C@H](C)[C@]2(Cc3cc(C(=O)O)ccc3O2)C1(C)C
The IC50 of the first is 3.6-fold higher: 2000 µM for the first, 548 µM for the second. The second is the more potent here.

Going from `COc1ccc(C(=O)O)c2c1C[C@@](C)([C@@H]1CC[C@](C)(O)[C@H](O)C1)O2` to `C=CCO[C@@H]1CC[C@H](C)[C@]2(Cc3cc(C(=O)O)ccc3O2)C1(C)C`, the IC50 rises from 1600 µM to 3080 µM (1.9-fold). The first is the more potent here.

`C[C@@H]1CCC2C(C)(C)[C@H](O)[C@H](O)C[C@]2(C)[C@@]12Cc1c(O)cc(C(=O)O)c(C=O)c1O2` (stereo partly specified) gave an IC50 of 570 µM.
